This is an account of results in article PMC8830247 (Journal of medicinal chemistry, 2019).

One data set deals with D3R. To be noted: cited from earlier work.
The next data set deals with Human Dopamine D3R (Homo sapiens, UniProt P35462). The data set is described as follows: Stimulation or inhibition of quinpirole-stimulated mitogenesis in CHO cells. To be noted: mitogenesis assay. It is filed as cell-based.
Data set [1] relates to oxycodone self-administration. Conditions: cited from earlier work.
The conditions of data set [2]: hot plate assay; cited from earlier work.
For a further data set, the system named is rats. Conditions: pretreatment, rats chronically treated with oxycodone; cited from earlier work.
The subject of the next data set is dogs. Conditions: cited from earlier work.
For data set [3] the following is noted: rats, PO 10 mg/kg; adapted from previously reported data; cited from earlier work.
The nature of data set [4]: Pharmacokinetics in rats after oral administration, plasma and brain. To be noted: PO 10 mg/kg.
The target of a further data set is T1, 5-HT1A receptor (Homo sapiens, UniProt P08908).
T1 sequence (P08908 1-422): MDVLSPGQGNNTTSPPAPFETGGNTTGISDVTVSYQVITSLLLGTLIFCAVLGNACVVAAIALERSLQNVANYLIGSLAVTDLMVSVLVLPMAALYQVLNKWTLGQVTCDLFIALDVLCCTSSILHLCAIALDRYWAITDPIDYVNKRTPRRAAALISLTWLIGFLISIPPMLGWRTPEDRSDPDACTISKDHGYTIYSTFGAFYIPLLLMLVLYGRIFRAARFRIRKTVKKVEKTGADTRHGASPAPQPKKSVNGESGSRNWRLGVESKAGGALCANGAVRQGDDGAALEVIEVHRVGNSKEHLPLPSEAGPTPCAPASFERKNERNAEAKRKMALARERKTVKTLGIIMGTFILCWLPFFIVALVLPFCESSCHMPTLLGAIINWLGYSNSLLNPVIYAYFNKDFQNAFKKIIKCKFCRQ
As to the kind of experiment: 5-HT1A [35S]GTPγS binding functional assay.

Sequence of Human Dopamine D3R (P35462 whole entry): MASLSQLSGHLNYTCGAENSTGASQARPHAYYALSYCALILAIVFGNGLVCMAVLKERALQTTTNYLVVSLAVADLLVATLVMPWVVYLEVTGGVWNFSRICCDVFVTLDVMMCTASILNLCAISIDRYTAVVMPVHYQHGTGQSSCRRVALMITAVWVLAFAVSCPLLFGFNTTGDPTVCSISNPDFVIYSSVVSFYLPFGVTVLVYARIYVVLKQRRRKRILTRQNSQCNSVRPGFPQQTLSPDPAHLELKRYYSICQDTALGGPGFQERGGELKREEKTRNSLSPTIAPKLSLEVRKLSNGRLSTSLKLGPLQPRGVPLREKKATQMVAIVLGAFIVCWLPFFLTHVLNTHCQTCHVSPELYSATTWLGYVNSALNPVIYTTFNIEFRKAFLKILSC

For `O=C(NCC[C@H](O)CN1CCN(c2cccc(Cl)c2Cl)CC1)c1cc2ccccc2[nH]1` [(S)-2], the “D3R functional efficacy (in words)” value in the data set with D3R is on record as “weak partial agonist”.
Turning to `O=C(NCC[C@@H](O)CN1CCN(c2cccc(Cl)c2Cl)CC1)c1cc2ccccc2[nH]1` [(R)-2], in the data set on D3R, the “D3R functional efficacy (in words)” value is recorded as “antagonist”.
In the case of `CCc1cc(Cl)c(OC)c(N2CCN(C[C@H](O)CCNC(=O)c3cc4ccccc4[nH]3)CC2)c1` [(R)-4, (R)-N-(4-(4-(3-Chloro-5-ethyl-2-methoxyphenyl)piperazin-1-yl)3-hydroxybutyl)-1H-indole-2-carboxamide], at Human Dopamine D3R, the “D3R functional efficacy (in words)” value is “D3R antagonists”.
In the case of `CCc1cccc(N2CCN(CC(O)CCNC(=O)c3cc4ccccc4[nH]3)CC2)c1Cl` (centres unmarked) [compound 5], the “D3R functional efficacy (in words)” value in the data set on D3R is “relatively low efficacy partial agonist”.
Consider `CCc1cc(Cl)c(OC)c(N2CCN(C[C@@H](O)CCNC(=O)c3cc4ccccc4[nH]3)CC2)c1` [(S)-4, (S)-N-(4-(4-(3-Chloro-5-ethyl-2-methoxyphenyl)piperazin-1-yl)3-hydroxybutyl)-1H-indole-2-carboxamide], for which the “D3R functional efficacy (in words)” value on Human Dopamine D3R is reported as “D3R antagonists”.
Regarding `CCc1cc(Cl)c(OC)c(N2CCN(CC(O)CCNC(=O)c3cc4ccccc4[nH]3)CC2)c1` (centres unmarked) [compound 4], in data set [1], the “acquisition and maintenance of oxycodone self-administration” value was “dose-dependently inhibited”; the “oxycodone extinction response and reinstatement of oxycodone-seeking” value is “inhibited oxycodone extinction response and reinstatement of oxycodone-seeking behaviors”. The “break-point for oxycodone self-administration” value in data set [1] (progressive-ratio schedule of reinforcement) was “lowering the break-point”. In addition, the “effect on antinociceptive actions of oxycodone” value in [2] was “no effect”. For the same compound, the “naloxone-precipitated conditioned place aversion” value in the data set on rats is “dose-dependently reduced”.
Regarding `Cc1ncoc1-c1nnc(SCCCN2C[C@@H]3C[C@]3(c3ccc(C(F)(F)F)cc3F)C2)n1C` [compound 1], the “blood pressure effect when coadministered with cocaine” value with dogs is “produced hypertension”.
On to `CCc1cccc(N2CCN(C[C@H](O)CCNC(=O)c3cc4ccccc4[nH]3)CC2)c1Cl` [(R)-5, (R)-N-(4-(4-(2-Chloro-3-ethylphenyl)piperazin-1-yl)-3-hydroxybutyl)-1H-indole-2-carboxamide], for which the “plasma exposure (AUC0-t)” value in [3] is 1.985 ± 0.2786 µM·h.
Consider `CCc1cccc(N2CCN(C[C@@H](O)CCNC(=O)c3cc4ccccc4[nH]3)CC2)c1Cl` [(S)-5, (S)-N-(4-(4-(2-Chloro-3-ethylphenyl)piperazin-1-yl)-3-hydroxybutyl)-1H-indole-2-carboxamide], for which the “brain Cmax” value in data set [4] is given as 3666.7 ± 312.7 pmol/g.
`CCc1cccc(N2CCN(CC(F)CCNC(=O)c3cc4ccccc4o3)CC2)c1Cl` (centres unmarked) [10b, N-(4-(4-(2-Chloro-3-ethylphenyl)piperazin-1-yl)-3-fluorobutyl)benzofuran-2-carboxamide]: on 5-HT1A receptor, the “5-HT1A functional efficacy (in words)” value is recorded as “low potency partial agonist”.
